Data taken from ChEMBL document CHEMBL1143488, “Bis(indole) alkaloids as sortase A inhibitors from the sponge Spongosorites sp” (Bioorg Med Chem Lett, 2005).
In brackets after ≈: the same amount, converted by molar mass.

Assays:
[1] = target: T1, Sortase A (Staphylococcus aureus, UniProt Q9S446); assay: Inhibitory activity against Sortase A from Staphylococcus aureus
T1 sequence (Q9S446 whole entry): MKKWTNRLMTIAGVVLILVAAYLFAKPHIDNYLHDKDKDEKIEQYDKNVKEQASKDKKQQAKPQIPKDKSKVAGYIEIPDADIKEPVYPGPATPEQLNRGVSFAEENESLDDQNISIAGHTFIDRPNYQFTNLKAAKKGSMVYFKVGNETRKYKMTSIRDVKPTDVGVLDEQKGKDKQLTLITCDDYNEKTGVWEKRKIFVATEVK

[2] = tested on: Staphylococcus aureus; assay: Minimum inhibitory concentration against Staphylococcus aureus Newman strain; type: functional

Row | Structure (SMILES) | IC50 [1] | MIC [2]
1 | O=C1N[C@@H](c2c[nH]c3cc(Br)ccc23)CN[C@@H]1c1c[nH]c2cc(Br)ccc12 | > 205 µM | 12.5 µg/mL (≈ 25.6 µM)
2 | O=C1N[C@H](c2c[nH]c3cc(Br)ccc23)CN=C1c1c[nH]c2cc(Br)ccc12 | 178 µM | 3.12 µg/mL (≈ 6.42 µM)
3 | O=C1NC[C@@H](c2c[nH]c3cc(Br)ccc23)N=C1c1c[nH]c2cc(Br)ccc12 | 142 µM | 6.25 µg/mL (≈ 12.9 µM)
4 | O=C1N[C@H](c2c[nH]c3cc(Br)ccc23)CN=C1c1c[nH]c2ccccc12 | 83.6 µM | 6.25 µg/mL (≈ 15.3 µM)
5 | O=C1NC[C@@H](c2c[nH]c3cc(Br)ccc23)N=C1c1c[nH]c2ccccc12 [(R)-6'-DEBROMOHAMACANTHIN B] | > 246 µM | 100 µg/mL (≈ 246 µM)
6 | O=C(c1ncc(-c2c[nH]c3cc(Br)ccc23)[nH]1)c1c[nH]c2ccccc12 [BROMODEOXYTOPSENTIN] | 48 µM | 
7 | O=C(c1nc(-c2c[nH]c3cc(Br)ccc23)c[nH]1)c1c[nH]c2cc(O)ccc12 [BROMOTOPSENTIN] | 39.6 µM | 25 µg/mL (≈ 59.3 µM)
8 | O=C(c1nc(-c2c[nH]c3ccccc23)c[nH]1)c1c[nH]c2ccccc12 [DEOXYTOPSENTIN] | 48 µM | 
9 | CC[C@H](CC[C@@H](C)[C@H]1CC[C@H]2[C@@H]3CC=C4C[C@@H](O[C@@H]5O[C@H](CO)[C@@H](O)[C@H](O)[C@H]5O)CC[C@]4(C)[C@H]3CC[C@]12C)C(C)C [SITOGLUSIDE] | 31.7 µM | 200 µg/mL (≈ 347 µM)
